Data from ChEMBL document CHEMBL1131005, “Synthesis and dopamine transporter affinity of the four stereoisomers of (+/-)-2-(methoxycarbonyl)-7-methyl-3-phenyl-7-azabicyclo[2.2.1]heptane” (J Med Chem, 1998).

Each compound was assayed against Sodium-dependent dopamine transporter (Rattus norvegicus, UniProt P23977) (assay: Binding affinity towards dopamine transporter using [3H]WIN-35428 as radioligand in rat caudate-putamen tissue).
Format: tissue-based

Sodium-dependent dopamine transporter, sequence (P23977 whole entry): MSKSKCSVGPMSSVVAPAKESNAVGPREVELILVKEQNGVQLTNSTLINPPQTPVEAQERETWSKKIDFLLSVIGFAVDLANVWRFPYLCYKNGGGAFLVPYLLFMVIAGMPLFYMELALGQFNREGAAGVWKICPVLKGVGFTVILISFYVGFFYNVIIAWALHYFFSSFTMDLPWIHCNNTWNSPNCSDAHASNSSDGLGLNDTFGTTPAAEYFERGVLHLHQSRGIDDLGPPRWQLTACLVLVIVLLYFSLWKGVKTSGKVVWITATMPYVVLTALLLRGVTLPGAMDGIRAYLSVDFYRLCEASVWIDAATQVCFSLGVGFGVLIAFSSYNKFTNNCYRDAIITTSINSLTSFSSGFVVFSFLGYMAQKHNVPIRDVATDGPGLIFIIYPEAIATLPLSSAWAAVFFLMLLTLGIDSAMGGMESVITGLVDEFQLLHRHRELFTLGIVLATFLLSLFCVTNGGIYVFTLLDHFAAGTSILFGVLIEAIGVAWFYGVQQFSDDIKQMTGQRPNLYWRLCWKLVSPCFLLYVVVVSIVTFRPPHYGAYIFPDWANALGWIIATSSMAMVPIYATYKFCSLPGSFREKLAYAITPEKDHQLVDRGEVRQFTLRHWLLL

Point of comparison: COC(=O)[C@H]1C2CCC([C@H]1c1ccccc1)N2C (stereo partly drawn), Ki 18.9 µM. Against it:
- COC(=O)[C@@H]1C2CCC([C@H]1c1ccccc1)N2C (stereo partly drawn) — 3.4-fold lower, 5.62 µM
- COC(=O)[C@@H]1C2CCC([C@@H]1c1ccccc1)N2C (stereo partly drawn) — 3.2-fold higher, 60.4 µM
